The values below come from paper PMC12368660, “Synergistic Ciprofloxacin-RWn Peptide Therapy Overcomes Drug Resistance in Gram-Negative Bacteria” (ACS Omega, 2025).

No end group written: not given here.

In data set [1] the test system is human embryonic kidney (HEK293) cells (ATCC CRL-1573). The format is cell-based. Conditions: 24 h. The protocol: HEK293 cells were cultured in Dulbecco's modified Eagle's medium (DMEM; Gibco, Thermo Fisher Scientific, Waltham, MA) supplemented with 10% (v/v) fetal bovine serum (FBS; Gibco) and 1% penicillin/streptomycin (Gibco) at 37 °C in a humidified atmosphere containing 5% CO2. Cells were seeded in 384-well plates at a density of 5 × 10^3 cells/well and incubated for 24 h. Compounds were then added to the wells at various concentrations. After a further 24 h incubation, resazurin (Sigma-Aldrich) was added to each well to a final concentration of 44 μM. After 4 h of incubation, fluorescence was measured at excitation/emission wavelengths of 560/590 nm using a Tecan […] microplate reader. Cell viability was expressed as a percentage relative to that of untreated control cells. […] All assays were conducted in duplicate (n = 2) across separate assay plates. […]

The subject of data set [2] is human umbilical vein endothelial (HUVEC) cells.
The conditions of data set [3]: cited from earlier work; for Solubility in 1x DPBS, estimated maximum concentration tested or achieved: pH 7.1. The protocol: Ciprofloxacin (CIP; Sigma-Aldrich, St. Louis, MO) and synthesized peptides were dissolved to prepare stock solutions. […] Solubility Test Results for Synthetic RWn Peptides. Peptide Ultrapure Waterᵃ 1x DPBS (pH 7.1 ± DMSOᵃ Formic Acid ID 0.1)ᵃ (HCOOH)ᵃ RW4 Dissolved (≤10 Dissolved (≤5 mg/mL) Dissolved (≤15 mg/mL) N/A mg/mL) RW4P Dissolved (≤2 Dissolved (≤2 mg/mL) Dissolved (≤10 mg/mL) N/A mg/mL) RW6 Dissolved (≤10 Undissolved Dissolved (≥10 mg/mL) N/A mg/mL) RW6P Dissolved (≤5 Undissolved Dissolved (≥10 mg/mL) N/A mg/mL) RW6-2P Undissolved Undissolved Dissolved (≤2 mg/mL) N/A RW8 Dissolved (≤5 Undissolved Dissolved (≤15 mg/mL) N/A mg/mL) RW8P Undissolved Undissolved Undissolved Dissolved (≤5 mg ...

Data set [4] concerns human embryonic kidney (HEK293) cells (ATCC CRL-1573). Set-up: method as in earlier work. The note with it: cited from earlier work.
Data set [5] deals with human umbilical vein endothelial (HUVEC) cells. Set-up: method as in earlier work. Conditions: cited from earlier work.

In the case of `N=C(N)NCCC[C@H](NC(=O)[C@H](Cc1c[nH]c2ccccc12)NC(=O)[C@H](CCCNC(=N)N)NC(=O)[C@H](Cc1c[nH]c2ccccc12)NC(=O)[C@H](CCCNC(=N)N)NC(=O)[C@H](Cc1c[nH]c2ccccc12)NC(=O)[C@H](CCCNC(=N)N)NC(=O)[C@H](Cc1c[nH]c2ccccc12)NC(=O)[C@H](CCCNC(=N)N)NC(=O)[C@H](Cc1c[nH]c2ccccc12)NC(=O)[C@@H](N)CCCNC(=N)N)C(=O)N[C@@H](Cc1c[nH]c2ccccc12)C(=O)O` [RW6], the “HEK293 (CC50)” value in data set [1] is more than 32 µg/mL. Moreover, the “HUVEC (CC50)” value in data set [2] was more than 32 µg/mL. Moreover, in data set [3], the “Solubility in DMSO, estimated maximum concentration tested or achieved” value (from here on “Solubility in DMSO”) is not below 10000 µg/mL and the “Solubility in ultrapure water, estimated maximum concentration tested or achieved” value (“Solubility in ultrapure water” below) was not above 10000 µg/mL.
RWRWPRWRW-NH2 [RW4P]: in data set [3], the “Solubility in DMSO” value is not above 10000 µg/mL; the “Solubility in ultrapure water” value was not above 2000 µg/mL; the “Solubility in 1x DPBS, estimated maximum concentration tested or achieved” value was not above 2000 µg/mL.
On to RWRWPRWRWPRWRW-NH2 [RW6–2P], for which, in data set [3], the “Solubility in DMSO” value was not above 2000 µg/mL.
Turning to RWRWRWPRWRWRW-NH2 [RW6P], in data set [3], the “Solubility in DMSO” value was not below 10000 µg/mL and the “Solubility in ultrapure water” value was not above 5000 µg/mL.
As for RWRWRWRW [RW4], the “HEK293 (CC50)” value in data set [1] was more than 32 µg/mL. Besides, the “concentration without detectable cytotoxicity, HEK293” value in data set [4] is more than 32000 ng/mL. Further, the “HUVEC (CC50)” value in data set [2] was more than 32 µg/mL. Moreover, in data set [5], the “concentration without detectable cytotoxicity, HUVEC” value was more than 32000 ng/mL. Further, in data set [3], the “Solubility in DMSO” value was not above 15000 µg/mL; the “Solubility in ultrapure water” value was not above 10000 µg/mL; the “Solubility in 1x DPBS, estimated maximum concentration tested or achieved” value was not above 5000 µg/mL.
In the case of RWRWRWRWPRWRWRWRW-NH2 [RW8P], the “Solubility in formic acid (HCOOH), estimated maximum concentration tested or achieved” value in data set [3] is not above 5000 µg/mL.
Turning to “RWRWRWRWRWRWRWRW [RW8, arginine-tryptophan-rich antimicrobial peptide, 16 AA]”, in data set [3], the “Solubility in DMSO” value is not above 15000 µg/mL and the “Solubility in ultrapure water” value was not above 5000 µg/mL.
